The source of these data is publication PMC5924617 (European journal of medicinal chemistry, 2018).

One data set concerns ISG56. Briefly: poly. The conditions noted are these: for inhibition at 10 µM: Homo sapiens, read-out: Inhibitory rate (%) of ISG56 expression; for Inhibitory rate (%) of ISG56 expression: 10 μM compound, poly(I:C)-induced, hSAECs. It is filed as cell-based, human.
In the next data set the test system is Groβ. Kind of data set: poly. It is filed as cell-based, human. The conditions noted are these: for inhibition at 10 µM: Homo sapiens, read-out: Inhibitory rate (%) of Groβ expression; for Inhibitory rate (%) of Groβ expression: 10 μM compound, poly(I:C)-induced, hSAECs.
Data set [1] relates to innate immune genes including ISG54, ISG56, IL-8 and Groβ. Kind of data set: poly. In kind it is cell-based, human. The conditions noted are these: for IC50: Homo sapiens, read-out: IC50 against all innate immune genes (range); for Inhibitory rates on immune genes' expression (all genes, text): 10 μM compound, ISG54, ISG56, IL-8, Groβ in hSAECs.
The nature of data set [2]: In vivo pharmacokinetic profile in rats. The conditions noted are these: PO 20 mg/kg.
The test system of the next data set is ISG54. Kind of data set: poly. In kind it is cell-based, human.
Another data set has as its system IL-8. Briefly: poly. It is filed as cell-based, human. The conditions noted are these: for inhibition at 10 µM: Homo sapiens, read-out: Inhibitory rate (%) of IL-8 expression.
Data set [3] deals with various receptors and enzymes including kinases such as IKK. Briefly: Eurofins Cerep panel assays, off-target effects. The conditions noted are these: tested concentration 10 μM; Table S1.
A short description of data set [4]: Daily administration over one month in mice, toxicity. The conditions noted are these: compound-treated mice.
Setting [5] is: 10 μM compound, poly(I:C)-induced, hSAECs.

Consider `COC(=O)[C@@H]1CCCN1S(=O)(=O)c1ccc(NCc2ccc(O)cc2)cc1` [Compound 15, Methyl ((4-((4-hydroxybenzyl)amino)phenyl)sulfonyl)-L-prolinate], for which the inhibition at 10 µM in the data set with ISG56 is -17%; with Groβ it was -12%.

With `Cc1cc(/N=N/c2ccc3c(c2)CCC(=O)N3)c(N)cc1O` [Compound 28, (E)-6-((2-Amino-4-hydroxy-5-methylphenyl)diazenyl)-3,4-dihydroquinolin-2(1H)-one], the half-inhibitory concentration (IC50) in data set [1] is 490 to 860 nM. Moreover, in data set [2], the Oral bioavailability result is on record as “not favorable”.

As for “Methyl ((4-(5-(furan-3-yl)isoxazole-3-carboxamido)phenyl)sulfonyl)-L-prolinate [Compound 12]”, the “Inhibitory rate (%) of ISG54 expression” value with ISG54 (setting [5]) is given as −114%. Also, in the data set with ISG56, the “Inhibitory rate (%) of ISG56 expression” value is recorded as −93%. The “Inhibitory rate (%) of IL-8 expression” value in the data set on IL-8 (setting [5]) was −86%. Further, the “Inhibitory rate (%) of Groβ expression” value in the data set on Groβ is listed as −98%.

In the case of `COC(=O)[C@@H]1CCCN1S(=O)(=O)c1ccc(NC(=O)c2ccc(C(F)(F)F)cc2)cc1` [Compound 14, Methyl ((4-(4-(trifluoromethyl)benzamido)phenyl)sulfonyl)-L-prolinate], the “Inhibitory rates on immune genes' expression (all genes, text)” value (“Inhibitory rates” for short) in data set [1] is on record as “completely lost its activity”.

On to `Cc1cc(/N=N/c2ccc(S(=O)(=O)NC3CCCC3)cc2)c(N)cc1O` [Compound 35, (E)-4-((2-Amino-4-hydroxy-5-methylphenyl)diazenyl)-N-cyclopentylbenzenesulfonamide], for which, in data set [1], the 50% inhibitory concentration (IC50) was in the range of 490 to 860 nM. In addition, the Oral bioavailability result in data set [2] is “not favorable”. In data set [3], the Off-target effects entry was “No significant off-target effects”. Moreover, the “Effects on hepatic, renal or pulmonary tissues, histological examination” value in data set [4] was “No discernable effects”.

For the compound `O=C1CCc2cc(NS(=O)(=O)c3ccc([N+](=O)[O-])cc3)ccc2N1` [Compound 27, 4-Nitro-N-(2-oxo-1,2,3,4-tetrahydroquinolin-6-yl)benzenesulfonamide], the inhibition at 10 µM in the data set with IL-8 was -32%.

Turning to `Cc1cc(/N=N/c2ccc(N3CCS(=O)(=O)CC3)cc2)c(N)cc1O` [Compound 33, (E)-4-(4-((2-Amino-4-hydroxy-5-methylphenyl)diazenyl)phenyl)thiomorpholine 1,1-dioxide], the “Inhibitory rates” value in data set [1] was “inactive”.

As to `Cc1sc2c(c1C)C(c1ccc(Cl)cc1)=N[C@@H](CC(=O)OC(C)(C)C)c1nnc(C)n1-2` [(+)-JQ1, reference compound], in data set [1], the IC50 was in the range of 1380 to 3850 nM.

On to `COC(=O)[C@@H]1CCCN1S(=O)(=O)c1ccc(N(C(=O)c2ccc(F)cc2)C(=O)c2ccc(F)cc2)cc1` [Compound 13, Methyl ((4-(4-fluoro-N-(4-fluorobenzoyl)benzamido)phenyl)sulfonyl)-L-prolinate], for which the “Inhibitory rates” value in data set [1] is reported as “around 90%”.

With `CCCc1cc(C(=O)Nc2ccc(S(=O)(=O)N3CCC[C@H]3C(=O)OC)cc2)no1` [Compound 11, Methyl ((4-(5-propylisoxazole-3-carboxamido)phenyl)sulfonyl)-L-prolinate], the inhibition at 10 µM with ISG54 (Homo sapiens, read-out: Inhibitory rate (%) of ISG54 expression) is -62%; in the data set with ISG56, -73%; in the data set on IL-8 it was -61%; with Groβ, -57%.

As to “5-Chloro-2-methoxy-N-(2-oxo-1,2,3,4-tetrahydroquinolin-6-yl)benzenesulfonamide [Compound 26]”, the “Inhibitory rate (%) of ISG56 expression” value in the data set on ISG56 came out at 56%. Besides, the “Inhibitory rate (%) of Groβ expression” value in the data set with Groβ came out at 56%.
